Data from US9586986B2, “Substituted 7-deazapurine ribonucleosides for therapeutic uses” (Institute of Organic Chemistry and Biochemistry ASCR, v.v.i., priority 2014, dated 2017).

Assays:
Assay type in all cases: cell-based
[1] = tested on: K562; experiment: Cytostatic/cytotoxic MTT assay, K562; conditions: Homo sapiens, K562; 72 h incubation; read-out: MTT, IC50 K562
Procedure, shortened: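 IC50 values reflect the drug concentration halving cell growth in a 72 h MTT assay. Readings were taken at 540 nm after SDS lysis, using duplicate four-fold dilution series on cells plated a day earlier.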

[2] = tested on: HCT116p53-/-; experiment: Cytostatic/cytotoxic MTT assay, HCT116p53-/-; conditions: Homo sapiens, HCT-116; 72 h incubation; read-out: MTT, IC50 HCT116 p53-/-
Procedure, shortened: (§1)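 Human cancer lines, including daunorubicin-resistant CEM-DNR (mrp-1/mdr-1 overexpressing) and paclitaxel-resistant K562-TAX (mdr-1), seeded 25,000-30,000 cells/well, pre-incubated 24 h, then treated in duplicate with four-fold dilutions for 72 h at 37° C, 5% CO2. MTT read-out at 540 nm; IC50 from dose-response curves.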

[3] = tested on: K562-TAX; experiment: Cytostatic/cytotoxic MTT assay, K562-TAX; conditions: Homo sapiens, paclitaxel resistant subline, 72 h, read-out: MTT, IC50 K562-TAX
Procedure, shortened: as §1

[4] = tested on: Huh-7 cells harboring replicon 2A; experiment: Cytotoxicity in replicon 2A cells; conditions: HCV subtype 2A replicon
Description: Compounds were also tested in Huh-7 cells harboring sub-genomic reporter replicons derived from HCV subtypes 1B and 2A (ref.: Stuyver, L. J.; Whitaker, T.; McBrayer, T. R.; Hernandez-Santiago, B. I.; Lostia, S.; Tharnish, P. M.; Ramesh, M.; Chu, C. K.; Jordan, R.; Shi, J. X.; Rachakonda, S.; Watanabe, K. A.; Otto, M. J.; Schinazi, R. F. Antimicrob. Agents Chemother. 2003, 47, 244-254).

[5] = tested on: HCT116; experiment: Cytostatic/cytotoxic MTT assay, HCT116; conditions: Homo sapiens, HCT-116; 72 h incubation; read-out: MTT, IC50 HCT116
Procedure, shortened: as §1

[6] = tested on: HeLa S3; experiment: XTT cytotoxicity assay, HeLa S3; conditions: Homo sapiens, HeLa S3; 72 h incubation; read-out: XTT, IC50 HeLa S3
Procedure, shortened: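 Cells seeded at 10,000 per well, compounds added after 24 h and incubated 72 h, then XTT (with N-methyl dibenzopyrazine methyl sulfate) for 2 h; absorbance at 495 nm. IC50 by non-linear regression.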

C#Cc1cn([C@@H]2O[C@H](CO)[C@@H](O)[C@H]2O)c2ncnc(NC)c12 [Compound 3g, 5-Ethynyl-4-methylamino-7-(β-D-ribofuranosyl)-7H-pyrrolo[2,3-d]pyrimidine]
IC50 [1]: > 20000 nM
IC50 [2]: > 20 µM
IC50 [3]: 1.38 µM
CC50 [4]: > 44 µM
IC50 [5]: > 20 µM
IC50 [6]: > 20 µM

Cc1ncnc2c1c(-c1ccsc1)cn2[C@@H]1O[C@H](CO)[C@@H](O)[C@H]1O [Compound 5d, 4-Methyl-7-(β-D-ribofuranosyl)-5-(thiophen-3-yl)-7H-pyrrolo[2,3-d]pyrimidine]
IC50 [1]: 320 nM
IC50 [2]: 1.43 µM
IC50 [3]: 5.55 µM
CC50 [4]: > 44 µM
IC50 [5]: 0.46 µM
IC50 [6]: 14.3 µM

CNc1ncnc2c1c(-c1ccco1)cn2[C@@H]1O[C@H](CO)[C@@H](O)[C@H]1O [Compound 3a, 5-(Furan-2-yl)-4-methylamino-7-(β-D-ribofuranosyl)-7H-pyrrolo[2,3-d]pyrimidine]
IC50 [1]: 220 nM
IC50 [2]: 0.44 µM
IC50 [3]: 15.1 µM
CC50 [4]: > 44 µM
IC50 [5]: 0.23 µM
IC50 [6]: 5 µM

COc1ncnc2c1c(-c1cccs1)cn2[C@@H]1O[C@H](CO)[C@@H](O)[C@H]1O [Compound 1c, 4-Methoxy-7-(β-D-ribofuranosyl)-5-(thiophen-2-yl)-7H-pyrrolo[2,3-d]pyrimidine]
IC50 [1]: 70 nM
IC50 [2]: 0.44 µM
IC50 [3]: 6.2 µM
CC50 [4]: > 44 µM
IC50 [5]: 0.08 µM
IC50 [6]: 1.76 µM

CSc1ncnc2c1c(-c1cc3ccccc3o1)cn2[C@@H]1O[C@H](CO)[C@@H](O)[C@H]1O [Compound 2f, 5-(Benzofuran-2-yl)-4-methylsulfanyl-7-(β-D-ribofuranosyl)-7H-pyrrolo[2,3-d]pyrimidine]
IC50 [1]: 17200 nM
IC50 [2]: > 20 µM
IC50 [3]: > 20 µM
CC50 [4]: > 44 µM
IC50 [5]: > 20 µM
IC50 [6]: 1.93 µM

CN(C)c1ncnc2c1ccn2[C@@H]1O[C@H](CO)[C@@H](O)[C@H]1O [RC4, reference compound]
IC50 [1]: 5280 nM
IC50 [2]: 5.09 µM
IC50 [3]: 0.89 µM
CC50 [4]: > 44 µM
IC50 [5]: 18.4 µM
IC50 [6]: 10.6 µM

COc1ncnc2c1c(-c1ccccc1)cn2[C@@H]1O[C@H](CO)[C@@H](O)[C@H]1O [Compound 1e, 4-Methoxy-5-phenyl-7-(β-D-ribofuranosyl)-7H-pyrrolo[2,3-d]pyrimidine]
IC50 [1]: > 20000 nM
IC50 [2]: > 20 µM
IC50 [3]: > 20 µM
CC50 [4]: > 44 µM
IC50 [5]: > 20 µM
IC50 [6]: > 20 µM

CN(C)c1ncnc2c1c(-c1ccsc1)cn2[C@@H]1O[C@H](CO)[C@@H](O)[C@H]1O [Compound 4d, 4-Dimethylamino-7-(β-D-ribofuranosyl)-5-(thiophen-3-yl)-7H-pyrrolo[2,3-d]pyrimidine]
IC50 [1]: 530 nM
IC50 [2]: > 20 µM
IC50 [3]: > 20 µM
CC50 [4]: > 44 µM
IC50 [5]: > 20 µM
IC50 [6]: > 15 µM

COc1ncnc2c1c(-c1cc3ccccc3o1)cn2[C@@H]1O[C@H](CO)[C@@H](O)[C@H]1O [Compound 1f, 5-(Benzofuran-2-yl)-4-methoxy-7-(β-D-ribofuranosyl)-7H-pyrrolo[2,3-d]pyrimidine]
IC50 [1]: 20900 nM
IC50 [2]: 14.5 µM
IC50 [3]: 13.1 µM
CC50 [4]: > 44 µM
IC50 [5]: 13.8 µM
IC50 [6]: 9.24 µM

CN(C)c1ncnc2c1c(-c1cccs1)cn2[C@@H]1O[C@H](CO)[C@@H](O)[C@H]1O [Compound 4c, 4-Dimethylamino-7-(β-D-ribofuranosyl)-5-(thiophen-2-yl)-7H-pyrrolo[2,3-d]pyrimidine]
IC50 [1]: > 20000 nM
IC50 [2]: > 20 µM
IC50 [3]: > 20 µM
CC50 [4]: > 44 µM
IC50 [5]: > 20 µM
IC50 [6]: > 20 µM

Cc1ncnc2c1c(-c1cccs1)cn2[C@@H]1O[C@H](CO)[C@@H](O)[C@H]1O [Compound 5c, 4-Methyl-7-(β-D-ribofuranosyl)-5-(thiophen-2-yl)-7H-pyrrolo[2,3-d]pyrimidine]
IC50 [1]: > 20000 nM
IC50 [2]: > 20 µM
IC50 [3]: > 20 µM
CC50 [4]: > 44 µM
IC50 [5]: > 20 µM
IC50 [6]: > 15 µM

CSc1ncnc2c1c(-c1ccccc1)cn2[C@@H]1O[C@H](CO)[C@@H](O)[C@H]1O [Compound 2e, 4-Methylsulfanyl-5-phenyl-7-(β-D-ribofuranosyl)-7H-pyrrolo[2,3-d]pyrimidine]
IC50 [1]: > 20000 nM
IC50 [2]: > 20 µM
IC50 [3]: > 20 µM
CC50 [4]: > 44 µM
IC50 [5]: > 20 µM
IC50 [6]: > 20 µM

C#Cc1cn([C@@H]2O[C@H](CO)[C@@H](O)[C@H]2O)c2ncnc(N(C)C)c12 [Compound 4g, 4-Dimethylamino-5-ethynyl-7-(β-D-ribofuranosyl)-7H-pyrrolo[2,3-d]pyrimidine]
IC50 [1]: 110 nM
IC50 [2]: 0.29 µM
IC50 [3]: 0.26 µM
CC50 [4]: > 44 µM
IC50 [5]: 0.18 µM
IC50 [6]: 0.81 µM

C#Cc1cn([C@@H]2O[C@H](CO)[C@@H](O)[C@H]2O)c2ncnc(OC)c12 [Compound 1g, 5-Ethynyl-4-methoxy-7-(β-D-ribofuranosyl)-7H-pyrrolo[2,3-d]pyrimidine]
IC50 [1]: 300 nM
IC50 [2]: 5.14 µM
IC50 [3]: 0.38 µM
CC50 [4]: > 44 µM
IC50 [5]: 4.06 µM
IC50 [6]: 1.73 µM

CN(C)c1ncnc2c1c(I)cn2[C@@H]1O[C@H](CO)[C@@H](O)[C@H]1O [Compound 4h, 4-Dimethylamino-5-iodo-7-(β-D-ribofuranosyl)-7H-pyrrolo[2,3-d]pyrimidine]
IC50 [1]: 70 nM
IC50 [2]: 0.12 µM
IC50 [3]: 0.05 µM
CC50 [4]: > 44 µM
IC50 [5]: 0.09 µM
IC50 [6]: 0.19 µM
